Measurements taken from patent US20170304281A1, “METHODS OF USING POTASSIUM CHANNEL INHIBITORS (BLOCKERS) FOR FLUID RESUSCITATION” (Loyola University of Chicago, priority 2016, published 2017).
Where two headings read alike, the source gives them in different places.

What was measured:
Kv7 channel = conditions: XE991 vs linopirdine; cited from earlier work
[1] = test system: rats hemorrhaged to induce hemorrhagic shock; test: Fluid resuscitation after hemorrhagic shock, intravenous bolus injection at end of shock period; assay type: in vivo, rat; conditions: for fluid requirements to resuscitate to a MAP of 70 mmHg: mean±SD
Experimental: Further phases of the investigation entailed the use of anesthetized male Sprague-Dawley rats that were hemorrhaged to a mean arterial blood pressure (MAP) of 25 mmHg for thirty minutes to induce hemorrhagic shock, followed by fluid resuscitation with normal saline to a MAP of 70 mmHg until t=75 minutes. Hemodynamics and fluid requirements were continuously monitored.
FIG. 3 contains three plots evidencing the ability of linopirdine to dose-dependently reduce fluid requirements to maintain hemodynamics during resuscitation from induced hemorrhagic shock. At the end of the hemorrhagic shock period (t=30 min), normal saline alone (“vehicle”; n=4), 1 mg/kg (n=5), 3 mg/kg (n=3), or 6 mg/kg (n=3) linopirdine in 0.5 mL normal saline were bolus injected intravenously. Plot “A” represents the mean arterial blood pressure (MAP, mmHg), plot “B” represents the hemorrhage volume in percent of total blood volume, and plot “C” represents the resuscitation fluid requirements to maintain blood pressure at 70 mmHg. Fluid requirements to resuscitate to a MAP of 70 mmHg were: 65±34 mL/kg with normal saline alone and 57±13 mL/kg, 22±8 mL/kg (p<0.05 vs. normal saline alone) and 22±11 mL/kg (p<0.05 vs. normal saline alone) with 1 mg/kg, 3 mg/kg, and 6 mg/kg linopirdine, respectively. The effect of linopirdine to reduce fluid requirements to maintain hemodynamics during resuscitation from hemorrhagic shock appeared to be saturated at a bolus dose of about 3 mg/kg linopirdine. As compared with normal saline-treated animals, a bolus injection of linopirdine (3 mg/kg and 6 mg/kg) reduced fluid resuscitation requirements by 70%. Data are mean±SD. *:p<0.05 vs. normal saline alone. Two-way ANOVA/Bonferroni post-hoc multiple comparison test.
At the end of the hemorrhagic shock period (t=30 min), normal saline alone (“vehicle”; n=3) or 1 mg/kg (n=3) of XE991 in 0.5 mL normal saline were injected intravenously. Plot “A” represents the mean arterial blood pressure (MAP, mmHg), plot “B” represents the hemorrhage volume in percent of total blood volume, and plot “C” represents the resuscitation fluid requirements to maintain blood pressure at 70 mmHg. […] Data are mean±SD. *:p<0.05 vs. normal saline alone. Two-way ANOVA/Bonferroni post-hoc multiple comparison test.

[2] = intravenous injection of 2.5 mg/kg in rats; cited from earlier work
[3] = phase 1 and phase 2 clinical trials as cognition-enhancing drug in Alzheimer's disease; cited from earlier work
[4] = test system: rats hemorrhaged to induce hemorrhagic shock; test: Fluid resuscitation after hemorrhagic shock, resuscitation fluid (normal saline) supplemented with drug; assay type: in vivo, rat; conditions: for fluid requirements to resuscitate to a MAP of 70 mmHg: mean±SD
Experimental: Further phases of the investigation entailed the use of anesthetized male Sprague-Dawley rats that were hemorrhaged to a mean arterial blood pressure (MAP) of 25 mmHg for thirty minutes to induce hemorrhagic shock, followed by fluid resuscitation with normal saline to a MAP of 70 mmHg until t=75 minutes. Hemodynamics and fluid requirements were continuously monitored. […] At the end of the hemorrhagic shock period (t=30 min), animals were resuscitated with normal saline alone (“vehicle”; n=4) or normal saline supplemented with 1.25 (n=4), 6.25 (n=3), 12.5 (n=4), or 200 (n=6) […] of linopirdine. Plot “A” represents the mean arterial blood pressure (MAP, mmHg), plot “B” represents the hemorrhage volume in percent of total blood volume, and plot “C” represents the resuscitation fluid requirements to maintain blood pressure at 70 mmHg. Fluid requirements to resuscitate to a MAP of 70 mmHg were: 73±12 mL/kg with NS, 72±24 mL/kg with NS supplemented with 1.25 μg/mL linopirdine and 61±20 mL/kg, 36±9 mL/kg (p<0.05 vs. NS alone) and 31±9 mL/kg (p<0.05 vs. NS alone) with NS supplemented with 6.25 μg/mL, 12.5 μg/mL and 200 μg/mL linopirdine, respectively. […] Data are mean±SD. *:p<0.05 vs. normal saline alone. Two-way ANOVA/Bonferroni post-hoc multiple comparison test.

[5] = rat, in vivo
Experimental: After intravenous injection of 2.5 mg/kg linopirdine, a half-life of 0.6 hours has been determined in rats. Thus, the short half-life would indicate that linopirdine is a drug that is easily controllable if adverse effects were to occur.

normal rats = test: Effect of intravenous bolus doses on blood pressure in normal anesthetized rats (sham, no hemorrhage); assay type: in vivo, rat; conditions: for peak mean arterial blood pressure (MAP): normal rats n=3, baseline MAP 92±2.5 mmHg, mean±SD
Experimental: Initial phases of the investigation entailed the administration of linopirdine to anesthetized male Sprague-Dawley rats to determine its effect on blood pressure. Hemodynamics and fluid requirements were continuously monitored.
FIG. 1 contains a plot representing the effect of linopirdine on blood pressure in normal rats (sham—no hemorrhage, n=3) that received five increasing intravenous (i.v.) bolus doses of linopirdine (0.1-6 mg per kg of body weight) in 0.5 mL normal saline (NS) at fifteen minute intervals. […] Data are mean±SD.
FIG. 2 contains a plot representing the effect of the Kv7 channel activator retigabine on blood pressure when administered to normal rats (sham—no hemorrhage, n=3) by intravenous injection in increasing dosages of 0.1 mg/kg, 0.5 mg/kg, 1 mg/kg, 3 mg/kg, 6 mg/kg, and 12 mg/kg in 0.5 mL normal saline. […] Data are mean±SD.

[6] = oral administration in humans; cited from earlier work

SMILES: O=C1c2ccccc2C(Cc2ccncc2)(Cc2ccncc2)c2ccccc21 [XE991]
- potency for channel blockade relative to linopirdine (Kv7 channel): five to ten-fold higher potency
- effect on resuscitation fluid requirements relative to linopirdine ([1]; XE991 1 mg/kg i.v. bolus, n=3, compared with linopirdine 3 mg/kg and 6 mg/kg): comparable effect

SMILES: O=C1N(c2ccccc2)c2ccccc2C1(Cc1ccncc1)Cc1ccncc1 [linopirdine]
- half-life [2]: 36 min
- adverse effects in clinical trials [3]: no relevant adverse effects
- fluid requirements to resuscitate to a MAP of 70 mmHg ([4]; NS supplemented with 1.25 μg/mL linopirdine, n=4, NS alone 73±12 mL/kg): 72 ± 24 mL/kg
- fluid requirements to resuscitate to a MAP of 70 mmHg ([4]; NS supplemented with 6.25 μg/mL linopirdine, n=3, NS alone 73±12 mL/kg): 61 ± 20 mL/kg
- fluid requirements to resuscitate to a MAP of 70 mmHg ([4]; NS supplemented with 12.5 μg/mL linopirdine, n=4, p<0.05 vs. NS alone (73±12 mL/kg), cumulative dose 0.446 mg/kg): 36 ± 9 mL/kg
- fluid requirements to resuscitate to a MAP of 70 mmHg ([4]; NS supplemented with 200 μg/mL linopirdine, n=6, p<0.05 vs. NS alone (73±12 mL/kg)): 31 ± 9 mL/kg
- concentration in normal saline at which the effect was saturated ([4]; supplemented resuscitation fluid, hemorrhagic shock rats): 12.5 µg/mL
- toxicity associated with treatment [5]: No toxicity
- transient increase of mean arterial blood pressure (normal rats; 6 mg/kg i.v. injection, normal rats): approximately 10%
- reversal of retigabine-induced hypotension (normal rats; 6 mg/kg linopirdine injected after last (12 mg/kg) dosage of retigabine, normal rats): able to be reversed
- time for MAP to return to baseline after bolus (normal rats; 0.1-6 mg/kg i.v. bolus doses, normal rats): ten to fifteen
- effect on systemic blood pressures (normal rats; high i.v. bolus dose 6 mg/kg and total i.v. dose 10.6 mg/kg within one hour, normotensive rats): only minimal and short-lived increases
- peak mean arterial blood pressure (MAP) (normal rats; linopirdine 0.1 mg/kg i.v. bolus): 92±2 mmHg
- peak mean arterial blood pressure (MAP) (normal rats; linopirdine 0.5 mg/kg i.v. bolus): 93±2 mmHg
- peak mean arterial blood pressure (MAP) (normal rats; linopirdine 1 mg/kg i.v. bolus): 95±4 mmHg
- peak mean arterial blood pressure (MAP) (normal rats; linopirdine 3 mg/kg i.v. bolus): 100±2 mmHg
- peak mean arterial blood pressure (MAP) (normal rats; linopirdine 6 mg/kg i.v. bolus): 105±0.6 mmHg
- half-life [6]: 24 to 192 min
- fluid requirements to resuscitate to a MAP of 70 mmHg ([1]; 1 mg/kg i.v. bolus at t=30 min, n=5, normal saline alone 65±34 mL/kg): 57 ± 13 mL/kg
- fluid requirements to resuscitate to a MAP of 70 mmHg ([1]; 3 mg/kg i.v. bolus at t=30 min, n=3, p<0.05 vs. normal saline alone (65±34 mL/kg)): 22 ± 8 mL/kg
- fluid requirements to resuscitate to a MAP of 70 mmHg ([1]; 6 mg/kg i.v. bolus at t=30 min, n=3, p<0.05 vs. normal saline alone (65±34 mL/kg)): 22 ± 11 mL/kg
- reduction of fluid resuscitation requirements compared with normal saline-treated animals ([1]; bolus injection 3 mg/kg and 6 mg/kg): 70%
- bolus dose at which the fluid-sparing effect appeared saturated ([1]; i.v. bolus, hemorrhagic shock rats): about 3 mg/kg
- reduction of resuscitation fluid requirements at saturating dose ([1]; single dose of three milligrams per kilogram at beginning of fluid resuscitation): 65%
